Measurements taken from patent publication US11180521B2, “Nicotinamide riboside analogs, pharmaceutical compositions, and uses thereof” (Metro International Biotech, LLC, priority 2018, dated 2021).

How the values were obtained:
Type in all cases: in vivo, C57BL/6 mice
[1] = test system: NAD, NAAD, NAM, and NMN levels in skeletal muscle; assay: PK/PD duration of effect study, single oral gavage dose: NAD, NAAD, NAM and NMN levels in skeletal muscle; design: key to NAAD concentration: BQL: Below quantitation limit; BDL: Below Detection Limit, No Peak Detected; settings: for NAAD concentration: pre-dose BDL
Procedure: (§1) Transcyclohexyl nicotinic acid riboside (NaR) dimer was administered by oral gavage at a dose of 500 mg/kg in an Ethanol/PBS, pH 7.4/PEG400 (10/30/60) vehicle. The dosing volume was 5 ml/kg at a solution concentration of 100 mg/ml. The solution concentration was increased for the presence of counterion.
(§2) Animals were fasted for 16 hours prior to dosing. Samples were collected pre-dose and at 0.25, 0.75, 1, 2, 4, 8 and 24 hr post dosing. Following euthanasia, the entire liver and skeletal muscle (gastrocnemius with attached soleus muscle, bilateral) were rinsed with 0.9% saline, and frozen for later bioanalysis. Samples were maintained frozen at −80° C. until bioanalysis.
(§3) Samples were thawed, homogenized, extracted and analyzed by LC-MS on the same day. The LC used was a Shimadzu Nexera UPLC, and the mass spectrometer was an AB Sciex Qtrap 6500. Specimens were analyzed for levels of administered compound (transcyclohexyl NaR dimer), as well as for levels of NAD, NAAD, NAM, and NMN by the method of standard addition, to detect alterations from the basal levels of the analytes. Calibration standards for quantifying administered compound were prepared using transcyclohexyl NaR dimer in mouse liver or skeletal muscle homogenates. Corresponding standards for quantifying other metabolites were also prepared. Data are calculated as the mean concentration from n=6 animals per time point.

[2] = PK/PD duration of effect study, single oral gavage dose: administered compound level in liver; design: key to transcyclohexyl NaR dimer concentration: BQL: Below quantitation limit; BDL: Below Detection Limit, No Peak Detected
Procedure: as §1, §2, §3

[3] = PK/PD duration of effect study, single oral gavage dose: administered compound level in skeletal muscle; design: key to transcyclohexyl NaR dimer concentration: BQL: Below quantitation limit; BDL: Below Detection Limit, No Peak Detected; settings: pre-dose BQL
Procedure: as §1, §2, §3

[4] = 1 hr after 500 mg/kg oral gavage
[5] = 2 hr after 500 mg/kg oral gavage
[6] = 24 hr after 500 mg/kg oral gavage

CC(=O)OC[C@H]1O[C@@H]([n+]2cccc(C(=O)O[C@H]3CC[C@H](OC(=O)c4ccc[n+]([C@@H]5O[C@H](COC(C)=O)[C@@H](OC(C)=O)[C@H]5OC(C)=O)c4)CC3)c2)[C@H](OC(C)=O)[C@@H]1OC(C)=O [transcyclohexyl NaR dimer, Transcyclohexyl nicotinic acid riboside (NaR) dimer]
NAAD concentration ([1]; 0.75 hr after 500 mg/kg oral gavage): BDL | NMN concentration ([1]; 1 hr after 500 mg/kg oral gavage, pre-dose 0.00225): 0.00173 mmol/kg | NAM concentration ([1]; 1 hr after 500 mg/kg oral gavage, pre-dose 0.159): 0.184 mmol/kg | NMN concentration ([1]; 1 hr after 500 mg/kg oral gavage, pre-dose 0.752): 0.579 µg/g | NAD concentration ([1]; 1 hr after 500 mg/kg oral gavage, pre-dose 0.781): 0.720 mmol/kg | NAM concentration ([1]; 1 hr after 500 mg/kg oral gavage, pre-dose 19.4): 22.4 µg/g | NAD concentration ([1]; 1 hr after 500 mg/kg oral gavage, pre-dose 518): 478 µg/g | NAAD concentration [1, 4]: BDL | NMN concentration ([1]; 2 hr after 500 mg/kg oral gavage, pre-dose 0.00225): 0.00191 mmol/kg | NAM concentration ([1]; 2 hr after 500 mg/kg oral gavage, pre-dose 0.159): 0.0918 mmol/kg | NMN concentration ([1]; 2 hr after 500 mg/kg oral gavage, pre-dose 0.752): 0.639 µg/g | NAD concentration ([1]; 2 hr after 500 mg/kg oral gavage, pre-dose 0.781): 0.875 mmol/kg | NAM concentration ([1]; 2 hr after 500 mg/kg oral gavage, pre-dose 19.4): 11.2 µg/g | NAD concentration ([1]; 2 hr after 500 mg/kg oral gavage, pre-dose 518): 581 µg/g | NAAD concentration [1, 5]: BDL | NMN concentration ([1]; 4 hr after 500 mg/kg oral gavage, pre-dose 0.00225): 0.00222 mmol/kg | NAM concentration ([1]; 4 hr after 500 mg/kg oral gavage, pre-dose 0.159): 0.166 mmol/kg | NMN concentration ([1]; 4 hr after 500 mg/kg oral gavage, pre-dose 0.752): 0.740 µg/g | NAD concentration ([1]; 4 hr after 500 mg/kg oral gavage, pre-dose 0.781): 0.726 mmol/kg | NAM concentration ([1]; 4 hr after 500 mg/kg oral gavage, pre-dose 19.4): 20.2 µg/g | NAD concentration ([1]; 4 hr after 500 mg/kg oral gavage, pre-dose 518): 482 µg/g | NMN concentration ([1]; 8 hr after 500 mg/kg oral gavage, pre-dose 0.00225): 0.00245 mmol/kg | NAM concentration ([1]; 8 hr after 500 mg/kg oral gavage, pre-dose 0.159): 0.170 mmol/kg | NMN concentration ([1]; 8 hr after 500 mg/kg oral gavage, pre-dose 0.752): 0.818 µg/g | NAD concentration ([1]; 8 hr after 500 mg/kg oral gavage, pre-dose 0.781): 0.648 mmol/kg | NAM concentration ([1]; 8 hr after 500 mg/kg oral gavage, pre-dose 19.4): 20.8 µg/g | NAD concentration ([1]; 8 hr after 500 mg/kg oral gavage, pre-dose 518): 430 µg/g | NMN concentration ([1]; 24 hr after 500 mg/kg oral gavage, pre-dose 0.00225): 0.00199 mmol/kg | NAM concentration ([1]; 24 hr after 500 mg/kg oral gavage, pre-dose 0.159): 0.155 mmol/kg | NMN concentration ([1]; 24 hr after 500 mg/kg oral gavage, pre-dose 0.752): 0.665 µg/g | NAD concentration ([1]; 24 hr after 500 mg/kg oral gavage, pre-dose 0.781): 0.635 mmol/kg | NAM concentration ([1]; 24 hr after 500 mg/kg oral gavage, pre-dose 19.4): 18.9 µg/g | NAD concentration ([1]; 24 hr after 500 mg/kg oral gavage, pre-dose 518): 421 µg/g | NAAD concentration [1, 6]: BDL | % AUC Extrap of transcyclohexyl NaR dimer ([2]; 500 mg/kg oral gavage): 0.00% | AUC(0-x) of transcyclohexyl NaR dimer ([2]; 500 mg/kg oral gavage): 3.05 µg·h/g | AUC(0-∞) of transcyclohexyl NaR dimer ([2]; 500 mg/kg oral gavage): 3.05 µg·h/g | transcyclohexyl NaR dimer concentration ([2]; 0.25 hr after 500 mg/kg oral gavage, pre-dose BQL): 0.0125 mmol/kg | transcyclohexyl NaR dimer concentration ([2]; 0.75 hr after 500 mg/kg oral gavage, pre-dose BQL): 0.000387 mmol/kg | transcyclohexyl NaR dimer concentration ([2]; 1 hr after 500 mg/kg oral gavage, pre-dose BQL): 0.000275 mmol/kg | transcyclohexyl NaR dimer concentration ([2]; 2 hr after 500 mg/kg oral gavage, pre-dose BQL): 0.0000706 mmol/kg | transcyclohexyl NaR dimer concentration ([2]; 4 hr after 500 mg/kg oral gavage, pre-dose BQL): BQL | transcyclohexyl NaR dimer concentration ([2]; 8 hr after 500 mg/kg oral gavage, pre-dose BQL): BQL | transcyclohexyl NaR dimer concentration ([2]; 24 hr after 500 mg/kg oral gavage, pre-dose BQL): BQL | Cmax ([2]; C57BL/6, mouse, 500 mg/kg oral gavage, read-out: Cmax of transcyclohexyl NaR dimer): 10600 ng/g | Tmax ([2]; C57BL/6, mouse, 500 mg/kg oral gavage, read-out: tmax of transcyclohexyl NaR dimer): 15 min | half-life ([2]; C57BL/6, mouse, 500 mg/kg oral gavage, regression points 0.75, 1, 2 h, read-out: t½ of transcyclohexyl NaR dimer (converted)): 30.5 min | concentration at 0.25 h ([2]; C57BL/6, mouse, 0.25 hr after 500 mg/kg oral gavage, pre-dose BQL, read-out: transcyclohexyl NaR dimer concentration): 10600 ng/g | concentration at 0.75 h ([2]; C57BL/6, mouse, 0.75 hr after 500 mg/kg oral gavage, pre-dose BQL, read-out: transcyclohexyl NaR dimer concentration): 327 ng/g | concentration at 1 h ([2]; C57BL/6, mouse, 1 hr after 500 mg/kg oral gavage, pre-dose BQL, read-out: transcyclohexyl NaR dimer concentration): 232 ng/g | concentration at 2 h ([2]; C57BL/6, mouse, 2 hr after 500 mg/kg oral gavage, pre-dose BQL, read-out: transcyclohexyl NaR dimer concentration): 60 ng/g | transcyclohexyl NaR dimer concentration ([3]; 0.25 hr after 500 mg/kg oral gavage): 0.0142 mmol/kg | transcyclohexyl NaR dimer concentration [3, 4]: 0.00109 mmol/kg | transcyclohexyl NaR dimer concentration [3, 5]: BQL | transcyclohexyl NaR dimer concentration ([3]; 4 hr after 500 mg/kg oral gavage): BQL | transcyclohexyl NaR dimer concentration ([3]; 8 hr after 500 mg/kg oral gavage): BQL | transcyclohexyl NaR dimer concentration [3, 6]: BQL | concentration at 0.25 h ([3]; C57BL/6, mouse, 0.25 hr after 500 mg/kg oral gavage, read-out: transcyclohexyl NaR dimer concentration): 12000 ng/g | concentration at 1 h ([3]; C57BL/6, mouse, 1 hr after 500 mg/kg oral gavage, read-out: transcyclohexyl NaR dimer concentration): 921 ng/g
